Key:
[1] = test system: antibodies in sera from SARS patients (sera 1a, 1b, 2, 6, 37, 62, London, SARS-yellow, SARS-green); type: binding, human; set-up: Binding of serum 6 to linear peptides of protein X1 of SARS-CoV Urbani / Binding of serum 37 to linear peptides of protein X1 of SARS-CoV Urbani / Binding of serum 6 to looped/cyclic peptide (PEPSCAN-ELISA) / Binding of serum 37 to looped/cyclic peptide (PEPSCAN-ELISA) / Binding of serum 37 to looped/cyclic peptides of protein X1 of SARS-CoV Urbani / Binding of serum 6 to linear peptides of protein X2 / Binding of serum 37 to linear peptides of protein X2 / Binding of serum 37 to looped/cyclic peptides of protein X2 of SARS-CoV Urbani / Binding of serum 6 to linear peptides of protein M of SARS-CoV Urbani / Binding of serum 37 to linear peptides of protein M of SARS-CoV Urbani / Binding of serum 6 to looped/cyclic peptides of protein M of SARS-CoV Urbani / Binding of serum 37 to looped/cyclic peptides of protein M of SARS-CoV Urbani / Binding of serum 6 to linear peptides of protein X3 of SARS-CoV Urbani / Binding of serum 37 to linear peptides of protein X3 of SARS-CoV Urbani / Binding of serum 37 to looped/cyclic peptides of protein X3 of SARS-CoV Urbani / Binding of serum 6 to linear peptides of protein X4 of SARS-CoV Urbani / Binding of serum 37 to linear peptides of protein X4 of SARS-CoV Urbani / Binding of serum 37 to looped/cyclic peptides of protein X4 of SARS-CoV Urbani / Binding of serum 6 to linear peptides of protein X5 of SARS-CoV Urbani / Binding of serum 37 to linear peptides of protein X5 of SARS-CoV Urbani / Binding of serum 37 to looped/cyclic peptides of protein X5 of SARS-CoV Urbani / Binding of serum 6 to linear peptides of protein N of SARS-CoV Urbani / Binding of serum 37 to linear peptides of protein N of SARS-CoV Urbani / Binding of serum 6 to linear peptide (PEPSCAN-ELISA) / Binding of serum 1a to looped/cyclic peptides of protein N of SARS-CoV Urbani / Binding of serum 1b to looped/cyclic peptides of protein N of SARS-CoV Urbani / Binding of serum 2 to looped/cyclic peptides of protein N of SARS-CoV Urbani / Binding of serum 6 to looped/cyclic peptides of protein N of SARS-CoV Urbani / Binding of serum 37 to looped/cyclic peptides of protein N of SARS-CoV Urbani / Binding of serum 62 to looped/cyclic peptides of protein N of SARS-CoV Urbani / Binding of serum London to looped/cyclic peptides of protein N of SARS-CoV Urbani / Binding of serum SARS-green to looped/cyclic peptides of protein N of SARS-CoV Urbani: unit not given here
[2] = test system: recombinant human anti-SARS-CoV antibody 03-018; type: binding; set-up: Binding of antibody 03-018 to linear peptides of the N protein of SARS-CoV Urbani / Binding of antibody 03-018 to looped/cyclic peptides of the N protein of SARS-CoV Urbani: unit not given here
[3] = test system: control sera (pooled serum of ten healthy LUMC hospital workers; commercial negative donor pooled serum from the Dutch bloodbank); type: binding, human; set-up: Binding of Control serum LUMC to linear peptides / Binding of Control serum Blood-bank to linear peptides / Binding of Control serum LUMC to looped peptides / Binding of Control Serum Blood-Bank to Looped peptides / Binding of Control serum LUMC to linear peptides of the protein M of SARS-CoV Urbani / Binding of Control serum Blood-bank to linear peptides of the protein M of SARS-CoV Urbani / Binding of Control serum LUMC to looped peptides of the protein M of SARS-CoV Urbani / Binding of Control Serum Blood-Bank to Looped peptides of the protein M of SARS-CoV Urbani: unit not given here
[4] = test system: rabbit serum obtained by immunizing a rabbit with the SARS-CoV strain Frankfurt 1; type: binding; set-up: Binding of a rabbit serum to linear peptides / Binding of a rabbit serum to looped peptides / Rabbit serum linear peptides / Rabbit serum looped peptides / Binding of a rabbit serum to linear peptides of protein N of SARS-CoV Urbani (Rabbit serum linear peptides) / Binding of a rabbit serum to looped/cyclic peptides of protein N of SARS-CoV Urbani (Rabbit serum looped peptides): unit not given here

| Sequence | Binding of serum 1a to linear peptides of protein N of SARS-CoV Urbani [1] | Binding of serum 1a to looped/cyclic peptides of protein N of SARS-CoV Urbani [1] | Binding of serum 1b to linear peptides of protein N of SARS-CoV Urbani [1] | Binding of serum 1b to looped/cyclic peptides of protein N of SARS-CoV Urbani [1] | Binding of serum 2 to linear peptides of protein N of SARS-CoV Urbani [1] | Binding of serum 2 to looped/cyclic peptides of protein N of SARS-CoV Urbani [1] | Binding of serum 6 to linear peptides of protein N of SARS-CoV Urbani [1] | Binding of serum 6 to looped/cyclic peptides of protein N of SARS-CoV Urbani [1] | Binding of serum 37 to linear peptides of protein N of SARS-CoV Urbani [1] | Binding of serum 37 to looped/cyclic peptides of protein N of SARS-CoV Urbani [1] | Binding of serum 62 to linear peptides of protein N of SARS-CoV Urbani [1] | Binding of serum 62 to looped/cyclic peptides of protein N of SARS-CoV Urbani [1] | Binding of serum London to linear peptides of protein N of SARS-CoV Urbani [1] | Binding of serum London to looped/cyclic peptides of protein N of SARS-CoV Urbani [1] | Binding of serum SARS-green to looped/cyclic peptides of protein N of SARS-CoV Urbani [1] | Binding of serum SARS-yellow to looped/cyclic peptides of protein N of SARS-CoV Urbani [1] | Binding of antibody 03-018 to linear peptides of the N protein of SARS-CoV Urbani [2] | Binding of antibody 03-018 to looped/cyclic peptides of the N protein of SARS-CoV Urbani [2] | Binding of a rabbit serum to linear peptides of protein N of SARS-CoV Urbani (Rabbit serum linear peptides) [4] | Binding of a rabbit serum to looped/cyclic peptides of protein N of SARS-CoV Urbani (Rabbit serum looped peptides) [4] | other results |
| --- | --- | --- | --- | --- | --- | --- | --- | --- | --- | --- | --- | --- | --- | --- | --- | --- | --- | --- | --- | --- | --- |
| MSDNGPQSNQRSAPR | 0.2 | 0.2 | 0.1 | 0.1 | 0.2 | 0.4 | 0.2 | 0.3 | 0.6 | 0.4 | 0.6 | 0.4 | 0.5 | 0.4 | 0.4 | 0.1 | 0.1 | 0.3 | 0.1 | 0.4 | Binding of serum SARS-green to linear peptides of protein N of SARS-CoV Urbani [1]: 0.3; Binding of serum SARS-yellow to linear peptides of protein N of SARS-CoV Urbani [1]: 0.5; Binding of Control Serum Blood-Bank to Looped peptides [3]: 0.6; Binding of Control serum Blood-bank to linear peptides [3]: 0.6; Binding of Control serum LUMC to linear peptides [3]: 0.5; Binding of Control serum LUMC to looped peptides [3]: 0.5 |
| MSRIGMEVTPSGTWL | 0.3 | 0.4 | 0.1 | 0.3 | 0.2 | 0.5 | 0.2 | 0.3 | 0.6 | 0.6 | 0.7 | 0.7 | 0.5 | 0.5 | 0.7 | 0.5 | 0.1 | 0.2 | 0.2 | 0.5 | Binding of serum SARS-green to linear peptides of protein N of SARS-CoV Urbani [1]: 0.3; Binding of serum SARS-yellow to linear peptides of protein N of SARS-CoV Urbani [1]: 0.6; Control Serum Blood-Bank Looped peptides [3]: 0.7; Control serum Blood-bank linear peptides [3]: 0.8; Control serum LUMC linear peptides [3]: 0.7; Control serum LUMC looped peptides [3]: 0.7 |
| NFGDQDLIRQGTDYK |  | 0.2 |  | 0.1 |  | 0.2 |  | 0.1 |  | 0.4 |  | 0.3 |  | 0.3 | 0.2 | 0.1 | 0.1 | 0.2 | 0.1 | 0.1 | Binding of serum 1a to linear peptide (PEPSCAN-ELISA) [1]: 0.3; Binding of serum 1b to linear peptide (PEPSCAN-ELISA) [1]: 0.2; Binding of serum 2 to linear peptide (PEPSCAN-ELISA) [1]: 0.2; Binding of serum 6 to linear peptide (PEPSCAN-ELISA) [1]: 0.2; Binding of serum 37 to linear peptide (PEPSCAN-ELISA) [1]: 0.7; Binding of serum 62 to linear peptide (PEPSCAN-ELISA) [1]: 0.7; Binding of serum London to linear peptide (PEPSCAN-ELISA) [1]: 0.6; Binding of serum SARS-green to linear peptide (PEPSCAN-ELISA) [1]: 0.8; Binding of serum SARS-yellow to linear peptide (PEPSCAN-ELISA) [1]: 0.6; Binding of Control Serum Blood-Bank to Looped peptides [3]: 0.5; Binding of Control serum Blood-bank to linear peptides [3]: 0.8; Binding of Control serum LUMC to linear peptides [3]: 0.7; Binding of Control serum LUMC to looped peptides [3]: 0.4 |

Reference: patent US20070128217A1 (priority 2003, published 2007)
